Test results reported in ChEMBL document CHEMBL4316596, “Antimicrobial Peptides with High Proteolytic Resistance for Combating Gram-Negative Bacteria” (J Med Chem, 2019).

Columns and labels:
Pseudomonas aeruginosa [1] = experiment: Antimicrobial activity against Pseudomonas aeruginosa CICC 21625 clinical isolates after 24 hrs by NCCLS-protocol based assay; format: functional; settings: CICC 21625, 24 h
Escherichia coli [2] = experiment: Bactericidal activity against Escherichia coli 078 incubated for 4 hrs followed by culture spread on agar plates and cultured overnight; format: functional; settings: Escherichia coli, 078, 4 h; read-out: MBC>99.9
Pseudomonas aeruginosa [3] = experiment: Bactericidal activity against Pseudomonas aeruginosa 26305 clinical isolates incubated for 4 hrs followed by culture spread on agar plates and cultured overnight; format: functional; settings: Pseudomonas aeruginosa, 26305, 4 h; read-out: MBC>99.9
Klebsiella pneumoniae [4] = experiment: Bactericidal activity against Klebsiella pneumoniae incubated for 4 hrs followed by culture spread on agar plates and cultured overnight; format: functional; settings: read-out: MBC>99.9
Pseudomonas aeruginosa [5] = experiment: Antimicrobial activity against Pseudomonas aeruginosa 25349 clinical isolates after 24 hrs by NCCLS-protocol based assay; format: functional; settings: Pseudomonas aeruginosa, 25349, 24 h
Salmonella typhimurium [6] = experiment: Bactericidal activity against Salmonella typhimurium ATCC 14028 incubated for 4 hrs followed by culture spread on agar plates and cultured overnight; format: functional, Salmonella enterica subsp. enterica serovar Typhimurium; settings: Salmonella enterica, ATCC 14028, 4 h; read-out: MBC>99.9
Salmonella typhimurium [7] = experiment: Bactericidal activity against Salmonella typhimurium C7731 incubated for 4 hrs followed by culture spread on agar plates and cultured overnight; format: functional, Salmonella enterica subsp. enterica serovar Typhimurium; settings: Salmonella enterica, C7731, 4 h; read-out: MBC>99.9
Klebsiella pneumoniae [8] = experiment: Antimicrobial activity against Klebsiella pneumoniae after 24 hrs by NCCLS-protocol based assay; format: functional
Escherichia coli [9] = experiment: Bactericidal activity against Escherichia coli K88 incubated for 4 hrs followed by culture spread on agar plates and cultured overnight; format: functional; settings: K88, 4 h, read-out: MBC>99.9
Escherichia coli [10] = experiment: Antimicrobial activity against Escherichia coli UB1005 after 24 hrs by NCCLS-protocol based assay; format: functional; settings: UB1005, 24 h
Escherichia coli [11] = experiment: Bactericidal activity against Escherichia coli ATCC 25922 incubated for 4 hrs followed by culture spread on agar plates and cultured overnight in presence of CaCl2; format: functional; settings: ATCC 25922, 4 h, read-out: MBC>99.9
Acinetobacter baumannii [12] = experiment: Bactericidal activity against Acinetobacter baumannii incubated for 4 hrs followed by culture spread on agar plates and cultured overnight; format: functional; settings: read-out: MBC>99.9
Escherichia coli [13] = experiment: Bactericidal activity against Escherichia coli ATCC 25922 incubated for 4 hrs followed by culture spread on agar plates and cultured overnight in presence of KCl; format: functional; settings: ATCC 25922, 4 h, read-out: MBC>99.9
Escherichia coli [14] = experiment: Bactericidal activity against Escherichia coli ATCC 25922 incubated for 4 hrs followed by culture spread on agar plates and cultured overnight in presence of 12.5% serum albumin; format: functional; settings: ATCC 25922, 4 h, read-out: MBC>99.9
Pseudomonas aeruginosa [15] = experiment: Bactericidal activity against Pseudomonas aeruginosa 25349 clinical isolates incubated for 4 hrs followed by culture spread on agar plates and cultured overnight; format: functional; settings: Pseudomonas aeruginosa, 25349, 4 h; read-out: MBC>99.9
Pseudomonas aeruginosa [16] = experiment: Antimicrobial activity against Pseudomonas aeruginosa 26305 clinical isolates after 24 hrs by NCCLS-protocol based assay; format: functional; settings: Pseudomonas aeruginosa, 26305, 24 h
Escherichia coli [17] = experiment: Bactericidal activity against Escherichia coli ATCC 25922 incubated for 4 hrs followed by culture spread on agar plates and cultured overnight in presence of NH4Cl; format: functional; settings: ATCC 25922, 4 h, read-out: MBC>99.9
[18] = Bactericidal activity against Salmonella pullorum C7913 incubated for 4 hrs followed by culture spread on agar plates and cultured overnight; format: functional, Salmonella enterica subsp. enterica serovar Pullorum; settings: Salmonella enterica, C7913, 4 h; read-out: MBC>99.9
Pseudomonas aeruginosa [19] = experiment: Bactericidal activity against Pseudomonas aeruginosa CICC 21630 clinical isolates incubated for 4 hrs followed by culture spread on agar plates and cultured overnight; format: functional; settings: CICC 21630, 4 h, read-out: MBC>99.9
Escherichia coli [20] = experiment: Bactericidal activity against Escherichia coli K99 incubated for 4 hrs followed by culture spread on agar plates and cultured overnight; format: functional; settings: K99, 4 h, read-out: MBC>99.9
Escherichia coli [21] = experiment: Bactericidal activity against Escherichia coli ATCC 25922 incubated for 4 hrs followed by culture spread on agar plates and cultured overnight in presence of FeCl3; format: functional; settings: ATCC 25922, 4 h, read-out: MBC>99.9
Escherichia coli [22] = experiment: Antimicrobial activity against Escherichia coli K88 after 24 hrs by NCCLS-protocol based assay; format: functional; settings: K88, 24 h
Salmonella typhimurium [23] = experiment: Antimicrobial activity against Salmonella typhimurium C7731 after 24 hrs by NCCLS-protocol based assay; format: functional, Salmonella enterica subsp. enterica serovar Typhimurium; settings: Salmonella enterica, C7731, 24 h
Acinetobacter baumannii [24] = experiment: Antimicrobial activity against Acinetobacter baumannii after 24 hrs by NCCLS-protocol based assay; format: functional
Pseudomonas aeruginosa [25] = experiment: Antimicrobial activity against Pseudomonas aeruginosa PAO1 after 24 hrs by NCCLS-protocol based assay; format: functional; settings: PAO1, 24 h
Pseudomonas aeruginosa [26] = experiment: Antimicrobial activity against Pseudomonas aeruginosa CICC 21630 clinical isolates after 24 hrs by NCCLS-protocol based assay; format: functional; settings: CICC 21630, 24 h
Escherichia coli [27] = experiment: Antimicrobial activity against Escherichia coli K99 after 24 hrs by NCCLS-protocol based assay; format: functional; settings: K99, 24 h
Escherichia coli [28] = experiment: Bactericidal activity against Escherichia coli ATCC 25922 incubated for 4 hrs followed by culture spread on agar plates and cultured overnight in presence of MgCl2; format: functional; settings: ATCC 25922, 4 h, read-out: MBC>99.9
Escherichia coli [29] = experiment: Bactericidal activity against Escherichia coli ATCC 25922 incubated for 4 hrs followed by culture spread on agar plates and cultured overnight in presence of 50% serum albumin; format: functional; settings: ATCC 25922, 4 h, read-out: MBC>99.9
Escherichia coli [30] = experiment: Bactericidal activity against Escherichia coli UB1005 incubated for 4 hrs followed by culture spread on agar plates and cultured overnight; format: functional; settings: UB1005, 4 h, read-out: MBC>99.9
Escherichia coli [31] = experiment: Antimicrobial activity against Escherichia coli 078 after 24 hrs by NCCLS-protocol based assay; format: functional; settings: Escherichia coli, 078, 24 h
Pseudomonas aeruginosa [32] = experiment: Antimicrobial activity against Pseudomonas aeruginosa ATCC 27853 after 24 hrs by NCCLS-protocol based assay; format: functional; settings: ATCC 27853, 24 h
Pseudomonas aeruginosa [33] = experiment: Bactericidal activity against Pseudomonas aeruginosa CICC 21625 clinical isolates incubated for 4 hrs followed by culture spread on agar plates and cultured overnight; format: functional; settings: CICC 21625, 4 h, read-out: MBC>99.9
Escherichia coli [34] = experiment: Bactericidal activity against Escherichia coli ATCC 25922 incubated for 4 hrs followed by culture spread on agar plates and cultured overnight; format: functional; settings: ATCC 25922, 4 h, read-out: MBC>99.9
Salmonella typhimurium [35] = experiment: Antimicrobial activity against Salmonella typhimurium ATCC 14028 after 24 hrs by NCCLS-protocol based assay; format: functional, Salmonella enterica subsp. enterica serovar Typhimurium; settings: Salmonella enterica, ATCC 14028, 24 h
[36] = Antimicrobial activity against Salmonella pullorum C7913 after 24 hrs by NCCLS-protocol based assay; format: functional, Salmonella enterica subsp. enterica serovar Pullorum; settings: Salmonella enterica, C7913, 24 h
Escherichia coli [37] = experiment: Bactericidal activity against Escherichia coli ATCC 25922 incubated for 4 hrs followed by culture spread on agar plates and cultured overnight in presence of ZnCl2; format: functional; settings: ATCC 25922, 4 h, read-out: MBC>99.9
Pseudomonas aeruginosa [38] = experiment: Bactericidal activity against Pseudomonas aeruginosa ATCC 27853 incubated for 4 hrs followed by culture spread on agar plates and cultured overnight; format: functional; settings: ATCC 27853, 4 h, read-out: MBC>99.9
Pseudomonas aeruginosa [39] = experiment: Bactericidal activity against Pseudomonas aeruginosa PAO1 incubated for 4 hrs followed by culture spread on agar plates and cultured overnight; format: functional; settings: PAO1, 4 h, read-out: MBC>99.9
Escherichia coli [40] = experiment: Bactericidal activity against Escherichia coli ATCC 25922 incubated for 4 hrs followed by culture spread on agar plates and cultured overnight in presence of NaCl; format: functional; settings: ATCC 25922, 4 h, read-out: MBC>99.9
Escherichia coli [41] = experiment: Antimicrobial activity against Escherichia coli ATCC 25922 after 24 hrs by NCCLS-protocol based assay; format: functional; settings: ATCC 25922, 24 h
Escherichia coli [42] = experiment: Bactericidal activity against Escherichia coli ATCC 25922 incubated for 4 hrs followed by culture spread on agar plates and cultured overnight in presence of 25% serum albumin; format: functional; settings: ATCC 25922, 4 h, read-out: MBC>99.9

H-LKPLLKPLLKPLLKPLLKPLLKPL-NH2
MIC95 (Pseudomonas aeruginosa [1]): 64 µM | MBC (Escherichia coli [2]): 2 µM | MBC (Pseudomonas aeruginosa [3]): > 64 µM | MBC (Klebsiella pneumoniae [4]): 8 µM | MIC95 (Pseudomonas aeruginosa [5]): 32 µM | MBC (Salmonella typhimurium [6]): 8 µM | MBC (Salmonella typhimurium [7]): 8 µM | MIC95 (Klebsiella pneumoniae [8]): 8 µM | MBC (Escherichia coli [9]): 2 µM | MIC95 (Escherichia coli [10]): 2 µM | MBC (Escherichia coli [11]): > 128 µM | MBC (Acinetobacter baumannii [12]): 4 µM | MBC (Escherichia coli [13]): 1 µM | MBC (Escherichia coli [14]): 8 µM | MBC (Pseudomonas aeruginosa [15]): 32 µM | MIC95 (Pseudomonas aeruginosa [16]): 64 µM | MBC (Escherichia coli [17]): 4 µM | MBC [18]: 8 µM | MBC (Pseudomonas aeruginosa [19]): 64 µM | MBC (Escherichia coli [20]): 2 µM | MBC (Escherichia coli [21]): 4 µM | MIC95 (Escherichia coli [22]): 1 µM | MIC95 (Salmonella typhimurium [23]): 8 µM | MIC95 (Acinetobacter baumannii [24]): 4 µM | MIC95 (Pseudomonas aeruginosa [25]): 4 µM | MIC95 (Pseudomonas aeruginosa [26]): 32 µM | MIC95 (Escherichia coli [27]): 2 µM | MBC (Escherichia coli [28]): 16 µM | MBC (Escherichia coli [29]): > 128 µM | MBC (Escherichia coli [30]): 4 µM | MIC95 (Escherichia coli [31]): 2 µM | MIC95 (Pseudomonas aeruginosa [32]): 4 µM | MBC (Pseudomonas aeruginosa [33]): 64 µM | MBC (Escherichia coli [34]): 2 µM | MIC95 (Salmonella typhimurium [35]): 4 µM | MIC95 [36]: 4 µM | MBC (Escherichia coli [37]): 2 µM | MBC (Pseudomonas aeruginosa [38]): 4 µM | MBC (Pseudomonas aeruginosa [39]): 8 µM | MBC (Escherichia coli [40]): 16 µM | MIC95 (Escherichia coli [41]): 1 µM | MBC (Escherichia coli [42]): > 128 µM

H-VRPVVRPVVRPVVRPVVRPVVRPVVRPV-NH2
MIC95 (Pseudomonas aeruginosa [1]): > 64 µM | MBC (Escherichia coli [2]): 16 µM | MBC (Pseudomonas aeruginosa [3]): > 64 µM | MBC (Klebsiella pneumoniae [4]): 64 µM | MIC95 (Pseudomonas aeruginosa [5]): > 64 µM | MBC (Salmonella typhimurium [6]): 16 µM | MBC (Salmonella typhimurium [7]): 32 µM | MIC95 (Klebsiella pneumoniae [8]): 32 µM | MBC (Escherichia coli [9]): 32 µM | MIC95 (Escherichia coli [10]): 8 µM | MBC (Acinetobacter baumannii [12]): 4 µM | MBC (Pseudomonas aeruginosa [15]): > 64 µM | MIC95 (Pseudomonas aeruginosa [16]): > 64 µM | MBC [18]: 8 µM | MBC (Pseudomonas aeruginosa [19]): > 64 µM | MBC (Escherichia coli [20]): 32 µM | MIC95 (Escherichia coli [22]): 8 µM | MIC95 (Salmonella typhimurium [23]): 16 µM | MIC95 (Acinetobacter baumannii [24]): 4 µM | MIC95 (Pseudomonas aeruginosa [25]): > 64 µM | MIC95 (Pseudomonas aeruginosa [26]): > 64 µM | MIC95 (Escherichia coli [27]): 16 µM | MBC (Escherichia coli [30]): 8 µM | MIC95 (Escherichia coli [31]): 8 µM | MIC95 (Pseudomonas aeruginosa [32]): > 64 µM | MBC (Pseudomonas aeruginosa [33]): > 64 µM | MBC (Escherichia coli [34]): 16 µM | MIC95 (Salmonella typhimurium [35]): 8 µM | MIC95 [36]: 4 µM | MBC (Pseudomonas aeruginosa [38]): > 64 µM | MBC (Pseudomonas aeruginosa [39]): > 64 µM | MIC95 (Escherichia coli [41]): 8 µM
